According to patent publication US5767236A, “Linear therapeutic peptides” (Biomeasure, Inc., priority 1995, dated 1998):
Non-standard residues stand in square brackets, D forms with d. Residues, ends and D or L forms follow the SMILES beside them. *: point of attachment. Propionyl = CCC(=O)*

Experiments:
CX-5 colon tumor = assay: Subcutaneous tumor assay, CX-5 colon tumor; format: in vivo, human; conditions: 100 μg/injection, s.c., b.i.d.
Experimental: (§1) Treatment of tumors induced by subcutaneous implantation of in vitro maintained cell cultures was initiated only when well established as progressively growing tumors in the first transplant generation from in vitro culture. "No takes" were culled and animals with tumors of similar size were carefully randomized into control and test groups.
(§2) Analogues were tested against all tumor systems except SCLC's and NSCLC's at a screening dose of 100 μg/injection, s.c., in the flank opposite from the tumor, b.i.d. Lung tumors (SCLC and NSCLC) were tested at 250 μg/injection, s.c., b.i.d. Rat breast tumors were tested at 400 Ag/injection, s.c., b.i.d., an equivalent extrapolation from the mouse dose.
(§3) In vivo transplantation established tumor systems were implanted s.c. as a 1-2 mm^3 mince of tumor tissue. Treatment was initiated within 2 to 3 days of implantation.
(§4) Tumor weights (mgs) from tumor dimensions (mm×mm) were calculated following the formula of a prolate ellipsoid: […]
(§5) L×W^2 /2, where L is the longer of the two measurements.
(§6) Tumor measurements were determined with a vernier caliper three times/week.
GOB-G Moderately differentiated adenocarcinoma, human, tested
as xenografts in athymic nude females.

[1] = test system: different human and animal tumors; assay: Assay on inhibition of tumor growth, overall statement; format: in vivo; conditions: summary of Table 3; inhibitory activity when Percent Test/Control < 80% T/C
Experimental: as §1, §2, §3, §4, §5, §6

M5123 hepatoma = assay: Subcutaneous tumor assay, M5123 hepatoma; format: in vivo, rat; conditions: 100 μg/injection, s.c., b.i.d.
Experimental: as §1, §2, §3, §4, §5, §6

GRP receptor = target: T1, GRP receptor (Rattus norvegicus, UniProt P52500); assay: Assay on binding to GRP receptor ([125I-Tyr4]bombesin displacement, AR42J cell membranes); conditions: for IC50: rat AR42J cell membranes, [125I-Tyr4]bombesin, 30 min, 4° C., read-out: IC50, affinity binding for the GRP receptors; for increase in the affinity for the GRP receptor compared with litorin or Leu-litorin: ratio of IC50 values versus litorin / Leu-litorin
T1 construct: endogenous in cells; host or cells: rat AR42J pancreatic acinar cells (membrane preparation)
Experimental: Rat AR42J pancreatic acinar cells were cultured in Dulbecco's modified Eagle's medium without antibiotics and supplemented with 10% (vol/vol) fetal calf serum. The incubation atmosphere consisted of 10% C)2 -90% humidified air at 37° C.
Membranes for the bombesin receptor binding assay were obtained by homogenizing AR42J cells (Polytron, setting 6, 15 sec) in ice-cold 50 mM Tris-HCl (Buffer A) and centrifuging twice at 39,000× g (10 min), with an intermediate resuspension in fresh buffer. The final pellets were resuspended in 50 mM Tris-HCl, containing 0.1 mg/ml bacitracin, and 0.1% BSA (Buffer B), and held on ice for the receptor binding assay.
For assay, aliquots (0.4 ml) were incubated with 0.05 ml [^125 I-Tyr^4 ] bombesin (~2200 Ci/mmol, New England Nuclear) and Buffer B, with and without 0.05 ml of unlabeled competing analogs. After a 30 min incubation (4° C.), the bound [^125 I-Tyr^4 ] bombesin was separated from the free by rapid filtration through GF/B filters which had been previously soaked in 0.1% polyethyleneimine. The filters were then washed three times with 5 ml aliquots of ice-cold Buffer A. Specific binding was defined as the total [^125 I-Tyr^4 ] bombesin bound minus that bound in the presence of 1 μM unlabeled bombesin.

T1 sequence (P52500 whole entry): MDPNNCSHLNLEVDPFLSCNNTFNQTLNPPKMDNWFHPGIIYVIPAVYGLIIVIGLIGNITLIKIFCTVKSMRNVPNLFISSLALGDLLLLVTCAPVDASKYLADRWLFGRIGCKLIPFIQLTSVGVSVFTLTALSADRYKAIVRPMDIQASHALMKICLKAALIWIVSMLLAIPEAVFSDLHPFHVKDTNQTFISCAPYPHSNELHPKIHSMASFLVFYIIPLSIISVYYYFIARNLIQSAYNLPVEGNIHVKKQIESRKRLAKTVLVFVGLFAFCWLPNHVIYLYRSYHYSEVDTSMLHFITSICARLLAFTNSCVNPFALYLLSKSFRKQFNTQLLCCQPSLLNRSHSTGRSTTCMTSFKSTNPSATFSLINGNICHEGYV

SMILES | inhibition of the growth of different human and animal tumors [1] | IC50 (GRP receptor) [nM] | increase in the affinity for the GRP receptor compared with litorin or Leu-litorin (GRP receptor) | other results
CCC(=O)N[C@@H](Cc1c[nH]cn1)C(=O)N[C@@H](Cc1c[nH]c2ccccc12)C(=O)N[C@@H](C)C(=O)N[C@H](C(=O)N[C@H](C)C(=O)N[C@@H](Cc1c[nH]cn1)C(=O)N[C@@H](CC(C)C)C(=O)N[C@@H](CC(C)C)C(N)=O)C(C)C [BIM-26247, Propionyl-His-Trp-Ala-Val-D-Ala-His-Leu-Leu-NH2] (Propionyl-HWAV[dA]HLL-NH2) | capable of inhibiting the growth |  |  | Percent Test/Control (tumor weight) (CX-5 colon tumor): 54%
CSCC[C@H](NC(=O)[C@H](CC(C)C)NC(=O)[C@H](Cc1c[nH]cn1)NC(=O)CNC(=O)[C@@H](NC(=O)[C@H](C)NC(=O)[C@H](Cc1c[nH]c2ccccc12)NC(=O)[C@H](CCC(N)=O)NC(=O)[C@H](N)Cc1ccccc1)C(C)C)C(N)=O [BIM-26218, H-D-Phe-Gln-Trp-Ala-Val-Gly-His-Leu-Met-NH2] | capable of inhibiting the growth |  |  | Percent Test/Control (tumor weight) (M5123 hepatoma): 70%
CSCC[C@H](NC(=O)[C@H](Cc1ccccc1)NC(=O)[C@H](Cc1c[nH]cn1)NC(=O)CNC(=O)[C@@H](NC(=O)[C@H](C)NC(=O)[C@H](Cc1c[nH]c2ccccc12)NC(=O)[C@H](CCC(N)=O)NC(=O)[C@H](N)Cc1ccc(O)cc1)C(C)C)C(N)=O [BIM-26271, H--D-Tyr--Gln--Trp--Ala--Val--Gly--His--Phe--Met--NH2] |  | 0.5 | 5- to 15 times | 
CSCC[C@H](NC(=O)[C@H](Cc1ccccc1)NC(=O)[C@H](Cc1c[nH]cn1)NC(=O)CNC(=O)[C@@H](NC(=O)[C@H](C)NC(=O)[C@H](Cc1c[nH]c2ccccc12)NC(=O)[C@H](CCC(N)=O)NC(=O)[C@H](N)Cc1ccccc1)C(C)C)C(N)=O [BIM-26269, H--D-Phe--Gln--Trp--Ala--Val--Gly--His--Phe--Met--NH2] |  | 1.4 |  | 
CSCC[C@H](NC(=O)[C@H](CC(C)C)NC(=O)[C@H](Cc1c[nH]cn1)NC(=O)CNC(=O)[C@@H](NC(=O)[C@H](C)NC(=O)[C@H](Cc1c[nH]c2ccccc12)NC(=O)[C@H](CCC(N)=O)NC(=O)[C@H](N)Cc1ccc(O)cc1)C(C)C)C(N)=O [BIM-26274, H--D-Tyr--Gln--Trp--Ala--Val--Gly--His--Leu--Met--NH2] |  | 0.3 |  | 
CCCC[C@H](NC(=O)[C@H](Cc1ccccc1)NC(=O)[C@H](Cc1c[nH]cn1)NC(=O)CNC(=O)[C@@H](NC(=O)[C@H](C)NC(=O)[C@H](Cc1c[nH]c2ccccc12)NC(=O)[C@H](CCC(N)=O)NC(=O)[C@H](N)Cc1ccc(O)cc1)C(C)C)C(N)=O [BIM-26270, H--D-Tyr--Gln--Trp--Ala--Val--Gly--His--Phe--Nle--NH2] |  | 0.1 | 24 to 230 times | 
